Several values for one entry are separate records, joined by “and”; a condition that tells them apart may be missing. Identical values can stand only once. Toxic doses and inconclusive results are not listed. Rule as the data show it: active = T/C of 150% or more; inactive = T/C below 125%.
Test system: L1210 leukemia ip in BDF1 mice, survival T/C
Assay: NCI In Vivo Anticancer Drug Screen. Data for tumor model L1210 Leukemia (intraperitoneal) in B6D2F1 (BDF1) mice
Settings: endpoint: mean survival time, higher = longer survival
Method in brief: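 Transplanted-tumor mice were given test agent; controls received vehicle only. Survival readings from the two groups were divided (treated over control).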

[1] = dose: 50.0 mg/kg/injection, schedule: Q01DX001 (ip), vehicle: carboxymethylcellulose (CMC)
[2] = dose: 100.0 mg/kg/injection, schedule: Q01DX001 (ip), vehicle: carboxymethylcellulose (CMC)
[3] = dose: 200.0 mg/kg/injection, schedule: Q01DX001 (ip), vehicle: carboxymethylcellulose (CMC)
[4] = dose: 400.0 mg/kg/injection, schedule: Q01DX001 (ip), vehicle: carboxymethylcellulose (CMC)
[5] = dose: 25.0 mg/kg/injection, schedule: Q01DX009 (ip), vehicle: saline
[6] = dose: 50.0 mg/kg/injection, schedule: Q01DX009 (ip), vehicle: saline
[7] = dose: 100.0 mg/kg/injection, schedule: Q01DX009 (ip), vehicle: saline
[8] = dose: 100.0 mg/kg/injection, schedule: Q04DX003 (ip), vehicle: Klucel (hydroxypropylcellulose) (HPC)
[9] = dose: 200.0 mg/kg/injection, schedule: Q04DX003 (ip), vehicle: Klucel (hydroxypropylcellulose) (HPC)
[10] = dose: 400.0 mg/kg/injection, schedule: Q04DX003 (ip), vehicle: Klucel (hydroxypropylcellulose) (HPC)
[11] = dose: 100.0 mg/kg/injection, schedule: Q01DX001 (ip), vehicle: saline
[12] = dose: 200.0 mg/kg/injection, schedule: Q01DX001 (ip), vehicle: saline
[13] = dose: 400.0 mg/kg/injection, schedule: Q01DX001 (ip), vehicle: saline
[14] = dose: 100.0 mg/kg/injection, schedule: Q01DX009 (ip), vehicle: saline with Tween-80
[15] = dose: 100.0 mg/kg/injection, schedule: Q04DX003 (ip), vehicle: saline with Tween-80
[16] = dose: 200.0 mg/kg/injection, schedule: Q01DX009 (ip), vehicle: saline with Tween-80
[17] = dose: 200.0 mg/kg/injection, schedule: Q04DX003 (ip), vehicle: saline with Tween-80
[18] = dose: 400.0 mg/kg/injection, schedule: Q01DX009 (ip), vehicle: saline with Tween-80
[19] = dose: 400.0 mg/kg/injection, schedule: Q04DX003 (ip), vehicle: saline with Tween-80
[20] = dose: 100.0 mg/kg/injection, schedule: Q01DX009 (ip), vehicle: Klucel (hydroxypropylcellulose) (HPC)
[21] = dose: 200.0 mg/kg/injection, schedule: Q01DX009 (ip), vehicle: Klucel (hydroxypropylcellulose) (HPC)
[22] = dose: 400.0 mg/kg/injection, schedule: Q01DX009 (ip), vehicle: Klucel (hydroxypropylcellulose) (HPC)

Measured: T/C

NC(=O)Nc1ccc2c(c1)Cc1ccccc1-2
inactive: [1] 100 % of control | [2] 96 % of control | [3] 100 % of control | [4] 102 % of control

COCc1ncc2cnccn12
inactive: [5] 90 % of control | [6] 103 % of control | [7] 98 % of control and 103 % of control and 91 % of control | dose: 200.0 mg/kg/injection, schedule: Q01DX009 (ip), vehicle: saline 93 % of control

O=S(=O)(CCCCl)Cc1ccccc1
inactive: dose: 100.0 mg/kg/injection, schedule: Q01DX009 (ip), vehicle: other 100 % of control | dose: 100.0 mg/kg/injection, schedule: Q04DX003 (ip), vehicle: other 110 % of control | dose: 200.0 mg/kg/injection, schedule: Q01DX009 (ip), vehicle: other 98 % of control | dose: 200.0 mg/kg/injection, schedule: Q04DX003 (ip), vehicle: other 101 % of control | dose: 400.0 mg/kg/injection, schedule: Q01DX009 (ip), vehicle: other 102 % of control | dose: 400.0 mg/kg/injection, schedule: Q04DX003 (ip), vehicle: other 107 % of control

Nc1cccc(CCc2nc(N)nc(N)c2-c2ccc(Cl)cc2)c1
inactive: dose: 100.0 mg/kg/injection, schedule: Q01DX001 (ip), vehicle: saline with Tween-80 97 % of control | dose: 200.0 mg/kg/injection, schedule: Q01DX001 (ip), vehicle: saline with Tween-80 95 % of control | dose: 400.0 mg/kg/injection, schedule: Q01DX001 (ip), vehicle: saline with Tween-80 101 % of control

N#CC(C#N)=Cc1c2ccccc2cc2ccccc12
inactive: [8] 94 % of control | [9] 91 % of control | [10] 112 % of control

CC(=O)N(c1ccncc1)c1ccc(NC(=O)c2ccc(N3C(=O)c4ccccc4C3=O)cc2[N+](=O)[O-])cc1
inactive: dose: 25.0 mg/kg/injection, schedule: Q04DX002 (ip), vehicle: saline with Tween-80 93 % of control and 102 % of control | dose: 400.0 mg/kg/injection, schedule: Q04DX002 (ip), vehicle: saline with Tween-80 96 % of control and 88 % of control

CCCCCCCCCCCCCCCC1=C(O)c2ccccc2C(=O)C1=O
inactive: [11] 112 % of control | [12] 101 % of control | [13] 103 % of control

O=C(Cn1cc(F)c(=O)[nH]c1=O)c1ccc(Cl)s1
inactive: [14] 108 % of control | [15] 100 % of control | [16] 89 % of control | [17] 97 % of control | [18] 97 % of control | [19] 102 % of control

C[N+](C)(C)CCCNC(=O)Nc1ccc(Cl)cc1
inactive: dose: 3.13 mg/kg/injection, schedule: Q04DX002 (ip), vehicle: saline 102 % of control | dose: 6.25 mg/kg/injection, schedule: Q04DX002 (ip), vehicle: saline 117 % of control | dose: 12.5 mg/kg/injection, schedule: Q04DX002 (ip), vehicle: saline 106 % of control

CCCCCCNC(=O)Nc1ccccc1Cl
inactive: [20] 97 % of control | [21] 100 % of control | [22] 105 % of control

CC(=O)C(Cl)C(C)=O.CC(=O)C(Cl)C(C)=O.CC(=O)CC(C)=O.[Rh]
inactive: dose: 50.0 mg/kg/injection, schedule: Q01DX001 (ip), vehicle: other 102 % of control | dose: 100.0 mg/kg/injection, schedule: Q01DX001 (ip), vehicle: other 98 % of control | dose: 200.0 mg/kg/injection, schedule: Q01DX001 (ip), vehicle: other 96 % of control | dose: 400.0 mg/kg/injection, schedule: Q01DX001 (ip), vehicle: other 98 % of control

C1CNCOC1
inactive: dose: 100.0 mg/kg/injection, schedule: Q04DX003 (ip), vehicle: saline 105 % of control | dose: 200.0 mg/kg/injection, schedule: Q04DX003 (ip), vehicle: saline 111 % of control

Cl[Si](Cl)(Cl)CCc1ccccc1
inactive: [5] 104 % of control | [6] 101 % of control | [7] 90 % of control

CC(O)C1CCC2C3CCC4CC(SC(=O)c5ccccc5)CCC4(C)C3CCC12C (centres undefined)
inactive: dose: 50.0 mg/kg/injection, schedule: Q01DX001 (sc), vehicle: steriod suspending solution 103 % of control | dose: 100.0 mg/kg/injection, schedule: Q01DX001 (sc), vehicle: steriod suspending solution 97 % of control | dose: 200.0 mg/kg/injection, schedule: Q01DX001 (sc), vehicle: steriod suspending solution 97 % of control | dose: 400.0 mg/kg/injection, schedule: Q01DX001 (sc), vehicle: steriod suspending solution 94 % of control

COc1ccc(OC)c(NC(=O)CI)c1
inactive: dose: 25.0 mg/kg/injection, schedule: Q01DX001 (ip), vehicle: Klucel (hydroxypropylcellulose) (HPC) 103 % of control | dose: 50.0 mg/kg/injection, schedule: Q01DX001 (ip), vehicle: Klucel (hydroxypropylcellulose) (HPC) 104 % of control | dose: 100.0 mg/kg/injection, schedule: Q01DX001 (ip), vehicle: Klucel (hydroxypropylcellulose) (HPC) 98 % of control

O=C(Oc1ccccc1)c1ccccc1Cl
inactive: [20] 102 % of control | [14] 96 % of control | [8] 96 % of control | [15] 100 % of control | [21] 98 % of control | [16] 101 % of control | [9] 96 % of control | [17] 100 % of control | [22] 95 % of control | [18] 97 % of control | [10] 98 % of control | [19] 110 % of control

CCC1(CC)OC2=C(CC(C#N)(C#N)C(C#N)(C#N)C2)O1
inactive: dose: 5.0 mg/kg/injection, schedule: Q01DX009 (ip), vehicle: Klucel (hydroxypropylcellulose) (HPC) 104 % of control | dose: 10.0 mg/kg/injection, schedule: Q01DX001 (ip), vehicle: saline 102 % of control | dose: 10.0 mg/kg/injection, schedule: Q01DX009 (ip), vehicle: Klucel (hydroxypropylcellulose) (HPC) 105 % of control | dose: 20.0 mg/kg/injection, schedule: Q01DX001 (ip), vehicle: saline 89 % of control | dose: 20.0 mg/kg/injection, schedule: Q01DX009 (ip), vehicle: Klucel (hydroxypropylcellulose) (HPC) 102 % of control

c1cc[nH]c1
inactive: dose: 75.0 mg/kg/injection, schedule: Q01DX001 (ip), vehicle: saline 100 % of control

[NH-]CC(=O)O.[NH-]CC(=O)O.[Pt+2]
inactive: dose: 14.0 mg/kg/injection, schedule: Q01DX009 (ip), vehicle: other 89 % of control | dose: 27.9 mg/kg/injection, schedule: Q01DX001 (ip), vehicle: other 93 % of control | dose: 28.0 mg/kg/injection, schedule: Q01DX009 (ip), vehicle: other 100 % of control | dose: 55.8 mg/kg/injection, schedule: Q01DX001 (ip), vehicle: other 89 % of control | dose: 56.0 mg/kg/injection, schedule: Q01DX009 (ip), vehicle: other 96 % of control | dose: 112.0 mg/kg/injection, schedule: Q01DX001 (ip), vehicle: other 97 % of control | dose: 112.0 mg/kg/injection, schedule: Q01DX009 (ip), vehicle: other 113 % of control | dose: 223.0 mg/kg/injection, schedule: Q01DX001 (ip), vehicle: other 109 % of control

O=C(Nc1cnccn1)C(F)(F)F
inactive: [11] 105 % of control | [12] 97 % of control | [13] 105 % of control

Cc1ccc(NC(=O)NCCCO)cc1
inactive: [1] 101 % of control | [2] 101 % of control | [3] 106 % of control | [4] 104 % of control

Cc1ccc(C)c(NC(=O)Oc2ccc3ccccc3c2)c1
inactive: [20] 93 % of control | [8] 107 % of control | [9] 107 % of control | [22] 91 % of control | [10] 97 % of control

Cc1ccc(S(=O)(=O)OC2CN(S(C)(=O)=O)CC(OS(=O)(=O)c3ccc(C)cc3)CN(S(C)(=O)=O)C2)cc1 (centres undefined)
inactive: dose: 25.0 mg/kg/injection, schedule: Q04DX002 (ip), vehicle: Klucel (hydroxypropylcellulose) (HPC) 89 % of control | dose: 50.0 mg/kg/injection, schedule: Q04DX002 (ip), vehicle: Klucel (hydroxypropylcellulose) (HPC) 103 % of control | dose: 100.0 mg/kg/injection, schedule: Q04DX002 (ip), vehicle: Klucel (hydroxypropylcellulose) (HPC) 92 % of control

From PubChem BioAssay AID248 (DTP/NCI, 2004)
